In ChEMBL document CHEMBL3044628, “Okaramine C, a New Insecticidal Indole Alkaloid from Penicillium simplicissimum” (1991):

What follows are compounds tested on Bombyx mori (assay: Insecticidal activity against po dosed larvae of Bombyx mori assessed per gram of diet).
Assay type: functional
`C=CC(C)(C)N1c2ccccc2[C@]2(O)C[C@@H]3C(=O)N4/C=C\C(C)(C)c5[nH]c6ccccc6c5/C=C\4C(=O)N3[C@H]12` [OKARAMINE A] showed an LD50 of 8 mg/kg.
For `CO[C@@H]1[C@]2(O)C(=O)N3/C=C\C(C)(C)c4[nH]c5ccccc5c4/C=C\3C(=O)N2[C@]23[C@H](C)C(C)(C)N2c2ccccc2[C@]13O` [OKARAMINE B], the LD50 was 0.2 mg/kg.
For `C=CC(C)(C)c1[nH]c2ccccc2c1CC1NC(=O)[C@H]2C[C@@]3(O)c4ccccc4N(C(C)(C)C=C)[C@H]3N2C1=O` (stereo partly drawn) [OKARAMINE C], the LD50 was 7 mg/kg.
